# US12570643B2, “3-aryloxy-3-five-membered heteroaryl propylamine compound, and crystal form and use thereof” (Shanghai Leado Pharmatech Co. Ltd., priority 2019, dated 2026)
# How the values were obtained:
# [1] = target: T1, TRPA1 (Mus musculus, UniProt Q8BLA8); test: TRPA1 inhibitory activity, IonWorks Barracuda (IWB) automatic patch clamp detection; type: cell-based; conditions: automatic patch clamp
# T1 construct: expressed in transfected cells; host or cells: HEK293 cells stably expressing TRPA1
# Procedure: In this example, the compounds prepared in some examples of the present invention (shown in Table 1) were tested for their inhibitory activity on the transient receptor potential channel protein TRPA1. Wherein, compound of formula A (WO2010075353) was used as positive control: […]
# Test method by using IonWorks Barracuda (IWB) automatic patch clamp detection: HEK293 cells stably expressing TRPA1 were placed in a 37° C., 5% CO2 incubator and incubated with DMEM medium containing 15 μg/mL Blasticidin S HCl, 200 μg/mL Hygromycin B and 10% FBS serum in a T175 culture flask. When the cell density grew to […], the culture medium was removed, the cells were washed with calcium and magnesium free phosphate buffered saline (PBS), and 3 mL of Trypsin was added and digested for 2 minutes, and 7 mL of culture medium was added to terminate the digestion. […]
# Data recording and current amplitude measurement and export were completed by IWB Software (version 2.5.3, Molecular Devices Corporation, Union City, CA). The statistics of the well with a sealing impedance lower than 20 M Ω were not recorded. The original current data was corrected by software, the TRPA1 current amplitude was measured in +100 mV. […] The dose-effect curve and IC50 of compounds were fitted and calculated by GraphPad Prism 5.02 (GraphPad Software, San Diego, CA).
# [2] = test system: acetic acid writhing pain model in mice; test: Acetic acid writhing pain model in mice; type: in vivo, ICR mice
# Procedure: ICR mice, male, 22-25 g, were fasted for food 2 h before administration, but can have water. All ICR mice were weighed and randomly grouped with the number of animals>10 per group. […] The mice were administered via intragastric administration according to the weight of mice. 1.5% acetic acid solution (0.1 ml/10 g) was intraperitoneally injected at 1 hour after administration, and the number of times of visceral pain in each group within 30 minutes was observed, the mice were counted once when the abdomen was concave, the trunk and hind legs were extended and the hips were elevated, and the number of times of these phenomena occurred within 30 min was finally counted.
# T1 sequence (Q8BLA8 whole entry): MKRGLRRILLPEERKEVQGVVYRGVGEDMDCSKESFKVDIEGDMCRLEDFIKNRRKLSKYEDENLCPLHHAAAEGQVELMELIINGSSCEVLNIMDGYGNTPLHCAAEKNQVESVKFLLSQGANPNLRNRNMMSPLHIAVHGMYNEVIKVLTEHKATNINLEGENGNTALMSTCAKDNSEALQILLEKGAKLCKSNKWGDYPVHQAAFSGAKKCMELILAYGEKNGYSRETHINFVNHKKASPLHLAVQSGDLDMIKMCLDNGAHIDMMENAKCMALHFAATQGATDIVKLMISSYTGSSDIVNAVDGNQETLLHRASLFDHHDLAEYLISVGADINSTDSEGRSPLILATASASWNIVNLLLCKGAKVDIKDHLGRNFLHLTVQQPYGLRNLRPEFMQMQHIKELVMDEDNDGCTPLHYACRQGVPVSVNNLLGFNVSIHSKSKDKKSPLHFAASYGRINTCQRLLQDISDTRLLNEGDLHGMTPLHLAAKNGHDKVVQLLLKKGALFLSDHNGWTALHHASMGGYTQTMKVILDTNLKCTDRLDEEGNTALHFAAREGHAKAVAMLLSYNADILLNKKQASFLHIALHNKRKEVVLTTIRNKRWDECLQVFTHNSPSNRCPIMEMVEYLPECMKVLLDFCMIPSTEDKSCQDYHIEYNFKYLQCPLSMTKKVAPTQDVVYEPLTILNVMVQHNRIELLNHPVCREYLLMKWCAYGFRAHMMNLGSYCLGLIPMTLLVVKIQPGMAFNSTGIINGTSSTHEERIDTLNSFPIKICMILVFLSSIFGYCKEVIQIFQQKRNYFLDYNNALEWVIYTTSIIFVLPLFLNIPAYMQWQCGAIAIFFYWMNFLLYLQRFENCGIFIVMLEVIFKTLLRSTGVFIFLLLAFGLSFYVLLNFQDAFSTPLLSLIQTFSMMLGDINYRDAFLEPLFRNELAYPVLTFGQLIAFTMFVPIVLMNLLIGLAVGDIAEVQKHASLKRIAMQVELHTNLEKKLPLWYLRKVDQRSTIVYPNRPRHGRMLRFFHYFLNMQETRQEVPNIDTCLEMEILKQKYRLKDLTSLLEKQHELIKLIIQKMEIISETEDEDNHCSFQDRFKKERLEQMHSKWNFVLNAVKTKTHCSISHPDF
compound,measurement,setting,value
"CNCC[C@@H](Oc1cccc2ccoc12)c1cccs1 [Compound I-1, (R)-3-(benzofuran-7-yloxy)-N-methyl-3-(thiophen-2-yl)propan-1-amine]",activity ratio (IC50 of compound C2/IC50 of compound I-1),[1],about 6.3
same,number of visceral pains lower than normal saline control group,[2]; 5 mg/kg intragastric,50%
same,ED50,"[2]; Mus musculus, po, intragastric, mice, read-out: half effective dose (ED50) in acetic acid writhing model",< 5 mg/kg
